For one series the following is noted: human. The source says: An inhouse physiologically based pharmacokinetic (PBPK) simulation program has been established. It supports one, two and multi-compartment models. The compartmental model program was designed using Matlab and Simulink to emulate human physiological conditions. With appropriate human physiological parameter input, absorption, distribution, metabolism and excretion profiles of compounds of interest can be estimated in human.
The parameter used for the evaluation is maximum exposure index (MEI), a product of AUC and the highest percentage recorded for Cannabis.
Consider `CC1=CCC2CC1C2(C)C` (stereo not drawn) [α-pinene], for which the “MEI, AUC* % mass” value is reported as 65.77.
As to `CCCCCc1cc(O)c(C/C=C(\C)CCC=C(C)C)c(O)c1` [Cannabigerol (CBG), Cannabigerol], the “MEI, AUC* % mass” value is reported as 4.89.
On the same count and under the same terms, with `C=CC(C)(O)CCC=C(C)C` (stereo not drawn) [Linalool] the figure was 0.03.
Turning to `CC1(C)C2CCC1(C)C(O)C2` (stereo not drawn) [Borneol], the “MEI, AUC* % mass” value came out at 0.10.

The conditions of the next series: known human values; cited from earlier work.
Consider `Cc1ncc2n1-c1ccc(Cl)cc1C(c1ccccc1F)=NC2` [midazolam], for which the “Hepatic extraction ratio (E)” value is listed as 0.5.
For `Cc1cc(=O)n(-c2ccccc2)n1C` [antipyrine], the “Hepatic extraction ratio (E)” value is recorded as 0.1.
